Data from patent US20230002334A1, “TRPM8 MODULATORS” (Givaudan SA, priority 2019, published 2023).
Like-named read-outs stand apart in the source and are kept apart here.

Assays:
[1] = molecular target: T1, hTRPM8 (Homo sapiens, UniProt Q7Z2W7); assay: Assay on TRPM8 modulators: calcium imaging (Fluo-4, Flexstation) in HEK293 cell line stably expressing hTRPM8; format: cell-based
T1 construct: expressed in transfected cells
Method in brief: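 Calcium influx monitored by Fluo-4 (2.7 μM with […] probenecid, 1 h 37 °C loading) in HEK293 cells stably expressing hTRPM8, in HEPES buffer pH 7.4 with 2 mM CaCl2. Fluorescence read 15 s before and 105 s after adding serial compound dilutions. Maximal activation relative to solvent and 31.6 μM menthol; EC50 from sigmoidal fit.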

[2] = test system: panelists (mouth, mucosa); assay: Sensory studies in aqueous solution (trained panel, swilling in the mouth); format: in vivo, human; settings: 40 ppm in aqueous solution; for time of max cooling / Max. cooling: 20 mL swilled 60 seconds; for Max. cooling / Cooling after 1 h: averaged panel score on scale 0 to 10; for Cooling after 1 h: 1 h after swilling
Experimental: The compounds as listed below in Table 2 were dissolved at a concenteration of 1 wt-% in propylene glycol. These solutions were then dispensed in appropriate quantities into deionized water containing 0.5 wt-% Poloxamer 407 (which is a hydrophilic non-ionic surfactant, e.g., commercially available from SigmaAldrich) and 0.25 wt-% Cremaphor® RH40 (obtained from BASF) as solubilizer, to obtain the desired final concentration of 40 ppm (parts per milion) of the respective compound.
A trained group of panelists evaluated the aqueous solutions containing test compound by swilling 20 mL of the solution in the mouth for 60 seconds, followed by spitting, without rinsing the mouth afterwards for the duration of the evaluation. Panelists evaluated and recorded the cooling performance as well as other sensorial and organoleptic attributes at different timepoints over a period of two hours. Cooling performance was rated on a scale from 0 to 10 with 0 being no effect and 10 being freezing. Scores were averaged for all panelists and the cooling intensity qualified as “N” for “none” (score of 0), “L” for “low” (score above 0, up to 1), “M” for “medium” (score above 1, up to 4), “S” for “strong” (score above 4, up to 8) and “E” for “extreme” (score above 8), which are provided in Table 2. […] All tasted samples developed cooling sensation starting during swilling (almost immediately upon contact with the mucosa) and before expectorating.

[3] = test system: panelists (mouth); assay: Sensory studies in model dentifrice (trained panel, tooth brushing); format: in vivo, human; settings: 100 ppm in model unflavored dentifrice; for time of max cooling / Max. cooling: 1 g brushed 60 seconds; for Max. cooling / Cooling after 1 h: averaged panel score on scale 0 to 10; for Cooling after 1 h: 1 h after brushing
Experimental: The compounds listed in Table 3 were dissolved at a concenteration of 1 wt-% in propylene glycol. These solutions were then dispersed in appropriate quantities to obtain the desired final concentration of 100 ppm (parts per milion) of the test compound into a model, unflavored dentifrice, the formula of which is given below (ingredients obtained from the suppliers respectively indicated in parenthesis).
A trained group of panelists evaluated the dentifrice containing a compound of formula (I), by brushing their teeth with 1 g of the dentifrice using a toothbrush for 60 seconds, followed by spitting, without rinsing the mouth afterwards for the duration of the evaluation. Panelists evaluated and recorded the cooling performance as well as other sensorial and organoleptic attributes at different timepoints over a period of two hours. Cooling performance was rated on a scale from 0 to 10 with 0 being no effect and 10 being freezing. Scores were averaged for all panelists and the cooling intensity qualified as “N” for “none” (score of 0), “L” for “low” (score above 0, up to 1), “M” for “medium” (score above 1, up to 4), “S” for “strong” (score above 4, up to 8) and “E” for “extreme” (score above 8), which are summarized below in Table 3. […] All tasted samples developed cooling sensation starting during brushing, before expectorating.

[4] = HEK293 cells stably expressing hTRPM8, calcium influx, sigmoidal dose-response fit, read-out: EC50

T1 sequence (Q7Z2W7 whole entry): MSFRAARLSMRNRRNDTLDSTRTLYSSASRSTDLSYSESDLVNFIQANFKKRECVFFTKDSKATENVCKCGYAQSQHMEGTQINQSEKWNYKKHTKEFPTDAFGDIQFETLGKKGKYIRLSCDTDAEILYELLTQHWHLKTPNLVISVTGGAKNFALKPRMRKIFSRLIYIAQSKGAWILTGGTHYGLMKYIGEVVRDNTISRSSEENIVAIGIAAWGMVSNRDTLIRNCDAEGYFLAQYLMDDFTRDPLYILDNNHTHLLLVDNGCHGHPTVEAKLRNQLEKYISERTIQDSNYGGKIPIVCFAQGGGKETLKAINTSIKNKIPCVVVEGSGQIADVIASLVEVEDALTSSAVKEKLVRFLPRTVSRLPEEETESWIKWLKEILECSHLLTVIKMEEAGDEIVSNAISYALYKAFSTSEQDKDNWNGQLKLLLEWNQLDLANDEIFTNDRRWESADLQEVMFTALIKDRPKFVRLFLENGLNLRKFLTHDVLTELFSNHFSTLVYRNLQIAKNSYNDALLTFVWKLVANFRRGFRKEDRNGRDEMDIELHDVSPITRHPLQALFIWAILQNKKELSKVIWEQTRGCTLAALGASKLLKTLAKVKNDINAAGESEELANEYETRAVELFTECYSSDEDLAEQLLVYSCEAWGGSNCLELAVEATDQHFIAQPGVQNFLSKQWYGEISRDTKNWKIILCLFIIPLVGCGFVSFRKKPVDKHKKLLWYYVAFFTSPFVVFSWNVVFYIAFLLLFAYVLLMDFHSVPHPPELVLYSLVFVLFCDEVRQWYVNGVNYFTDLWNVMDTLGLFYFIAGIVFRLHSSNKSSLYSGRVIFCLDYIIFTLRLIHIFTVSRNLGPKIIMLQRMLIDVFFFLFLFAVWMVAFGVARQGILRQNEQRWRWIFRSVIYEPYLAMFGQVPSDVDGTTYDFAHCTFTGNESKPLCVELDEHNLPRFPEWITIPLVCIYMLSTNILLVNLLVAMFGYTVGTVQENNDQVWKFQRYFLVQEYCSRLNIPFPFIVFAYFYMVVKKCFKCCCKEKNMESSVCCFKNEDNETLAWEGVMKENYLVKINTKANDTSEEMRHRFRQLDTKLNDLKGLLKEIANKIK

SMILES	EC50 [1, 4] [nM]	time of max cooling [2] [min]	Max. cooling [2]	Cooling after 1 h [2]	time of max cooling [3] [min]	Max. cooling [3]	Cooling after 1 h [3]	EC50 [1] [nM]
Cc1ccccc1[C@@]1(C)C[C@@H]2[C@@H]([C@@H](C)C1)N(C)OC2(C)C (racemic) [Compound 46, rac-(3aR,5R,7S,7aR)-1,3,3,5,7-pentamethyl-5-(o-tolyl)octahydrobenzo[c]isoxazole]	< 50	10	S (“S” for “strong” (score above 4, up to 8))	M (“M” for “medium” (score above 1, up to 4))	20	S (“S” for “strong” (score above 4, up to 8))	M (“M” for “medium” (score above 1, up to 4))	
C[C@H]1C[C@@](C)(c2ccccc2)C[C@@H]2[C@@H]1N(C)OC2(C)C (racemic) [Compound 48, rac-(3aR,5R,7S,7aR)-1,3,3,5,7-pentamethyl-5-phenyloctahydrobenzo[c]isoxazole]	50 to 300	10	S (“S” for “strong” (score above 4, up to 8))	M (“M” for “medium” (score above 1, up to 4))	5	M (“M” for “medium” (score above 1, up to 4))	L (“L” for “low” (score above 0, up to 1))	
CCN1OC(C)(C)C2CC(C)(CC=C(C)C)CC(C)C21 (centres unmarked) [Compound 9, 1-ethyl-3,3,5,7-tetramethyl-5-(3-methylbut-2-en-1-yl)octahydrobenzo[c]isoxazole]	50 to 300	10	M (“M” for “medium” (score above 1, up to 4))	M (“M” for “medium” (score above 1, up to 4))				
CC(C)N1OC(C)(C)[C@@H]2C[C@H](c3ccccc3)C[C@H](C)[C@H]21 (racemic) [Compound 64, rac-(3aR,5R,7S,7aR)-1-isopropyl-3,3,7-trimethyl-5-phenyloctahydrobenzo[c]isoxazole]	50 to 300	10	M (“M” for “medium” (score above 1, up to 4))	M (“M” for “medium” (score above 1, up to 4))				
CC(C)=CC[C@H]1C[C@@H]2[C@@H]([C@@H](C)C1)N(C)OC2(C)C (racemic) [Compound 50, rac-(3aR,5R,7S,7aR)-1,3,3,7-tetramethyl-5-(3-methylbut-2-en-1-yl)octahydrobenzo[c]isoxazole]		10	M (“M” for “medium” (score above 1, up to 4))	M (“M” for “medium” (score above 1, up to 4))				50 to 300
COc1ccccc1[C@H]1C[C@@H]2[C@@H]([C@@H](C)C1)N(C(C)C)OC2(C)C (racemic) [Compound 66, rac-(3aR,5R,7S,7aR)-1-isopropyl-5-(2-methoxyphenyl)-3,3,7-trimethyloctahydrobenzo[c]isoxazole]	< 50	20	M (“M” for “medium” (score above 1, up to 4))	M (“M” for “medium” (score above 1, up to 4))				
Cc1ccc(C#N)cc1[C@@]1(C)C[C@@H]2[C@@H]([C@@H](C)C1)N(C)OC2(C)C (stereo in doubt) [Compound 135, rac-4-methyl-3-((3aR,5R,7S,7aR)-1,3,3,5,7-pentamethyloctahydrobenzo[c]isoxazol-5-yl)benzonitrile]	< 50	10	E (“E” for “extreme” (score above 8))	M (“M” for “medium” (score above 1, up to 4))	5	S (“S” for “strong” (score above 4, up to 8))	M (“M” for “medium” (score above 1, up to 4))	
CC1=CC[C@H](C2CCC3C(C2)N(C)OC3(C)C)CC1 (stereo partly drawn) [Compound 7, 1,3,3-trimethyl-6-((R)-4-methylcyclohex-3-en-1-yl)octahydrobenzo[c]isoxazole]	300 to 1000	10	M (“M” for “medium” (score above 1, up to 4))	L (“L” for “low” (score above 0, up to 1))				
C[C@H]1C[C@@](C)(c2ccc(F)cc2)C[C@@H]2[C@@H]1N(C)OC2(C)C (racemic) [Compound 102, rac-(3aR,5R,7S,7aR)-5-(4-fluorophenyl)-1,3,3,5,7-pentamethyloctahydrobenzo[c]isoxazole]	< 50	10	S (“S” for “strong” (score above 4, up to 8))	M (“M” for “medium” (score above 1, up to 4))	10	M (“M” for “medium” (score above 1, up to 4))	M (“M” for “medium” (score above 1, up to 4))	
CCN1OC(C)(C)C2CC(CC=C(C)C)CC(C)C21 (racemic) [Compound 120, rac-(3aS,5S,7S,7aS)-1-ethyl-3,3,7-trimethy)-5-(3-methylbut-2-en-1-yl)octahydrobenzo[c]isoxazole]	300 to 1000	10	M (“M” for “medium” (score above 1, up to 4))	L (“L” for “low” (score above 0, up to 1))				
COc1ccccc1[C@H]1C[C@@H]2[C@@H]([C@@H](C)C1)N(C)OC2(C)C (racemic) [Compound 83, rac-(3aR,5R,7S,7aR)-5-(2-methoxyphenyl)-1,3,3,7-tetramethyloctahydrobenzo[c]isoxazole]	< 50	10	S (“S” for “strong” (score above 4, up to 8))	L (“L” for “low” (score above 0, up to 1))				
